Patent publication US20170049786A1, “MTOR PATHWAY INHIBITORS FOR TREATING OCULAR DISORDERS” (Santen Pharmaceutical Co., Ltd., priority 2009, published 2017)
“And” between values parts separate entries of the source, which are not always exact repeats. Equal entries are not always repeated. Where two headings read alike, the source gives them in different places.

How the values were obtained:
[1] = Solubility profiles of therapeutic agents (Table 71-1); conditions: for physical state when formulated in PEG400: 3% therapeutic agent and 97% PEG400
Procedure: Various therapeutic agents (e.g., rapalogs and/or mTOR inhibitors) were formulated as liquid solutions or suspensions for ophthalmic administration by injection. The therapeutic agents of exemplary formulations were as follows: everolimus, sirolimus, temsirolimus, zotarolimus, PP242, PP30 and palomid 529.
Liquid formulations containing 3% therapeutic agent (everolimus, sirolimus, temsirolimus or zotarolimus) and 97% PEG400 were prepared.

[2] = system: Human umbilical vein endothelial cells (HUVEC); assay: Inhibition of VEGF-induced proliferation, BrdU incorporation; type: cell-based; conditions: for IC50: Homo sapiens, 12.5 ng/mL VEGF
Procedure: The objective of this study was to evaluate the anti-proliferative effects of various therapeutic agents (everolimus, sirolimus, tacrolimus, temsirolimus, zotarolimus, PP242, PP30, Palomid 529, WYE-354, and KU-0063794) by measuring bromodeoxyuridine (BrdU) incorporation into cellular DNA. The therapeutic agents were dissolved directly into class A vials in less than 1% DMSO. Human umbilical vein endothelial cells (HUVEC) were obtained from Lonza (Catalog No. CC-2517). Vascular endothelial growth factor (VEGF) was obtained from R&D Systems (Catalog No. 293-VE-010). A BrdU Assay kit was obtained from Calbiochem (Catalog No. Q1A58). The inhibitory effect of rapamycin on HUVEC proliferation has been described (Kwon et al., Invest Opththamol Vis Sci, 46:454-4699, 2005).
Early passage HUVEC were plated at 2,000 cells/well in 96-well plates for 24 hours. The cells were then starved for 24 hours by replacing medium with medium lacking serum and HUVEC medium growth factors. After overnight starvation, wells were inoculated with (i) medium containing 2.5% serum and 12.5 ng/mL VEGF, (ii) medium with 12.5 ng/mL VEGF, (iii) medium with 2.5% serum or (iv) medium without serum or VEGF. Control compounds and test compounds were added at eight to eleven concentrations of each compound. All wells were set up in four replicates. BrdU was added to the medium 72 hours after feeding. After the overnight labeling, the cells were assayed according the manufacturers instructions and the plates were read at OD450. Average absorbance for replicate wells was used to calculate IC50 for the compounds of Table 72-1.

[3] = system: retinal and choroidal neovascularization (RNV and CNV); assay: Inhibition of retinal and choroidal neovascularization in vivo (subretinal […]/bFGF/VEGF model, fluorescein angiography); set-up: species or system New Zealand white rabbits; conditions: six microliter intravitreal dose of 2% agent in 4% ethanol, 94% PEG400 on Day 8; compared with 50 microliter AVASTIN (25 mg/ml)
Procedure: The objective of this study was to evaluate the effects of various therapeutic agents (everolimus, sirolimus, temsirolimus, and zotarolimus) on retinal and choroidal neovascularization (RNV and CNV) in a rabbit model (Qiu et al., Exp Eye Res, 83:141-152, 2006). Liquid formulations containing 2% (w/w) of the therapeutic agents were prepared in 4% (w/w) ethanol, and 94% (w/w) PEG400. As a positive control, a formulation containing 25 mg/ml AVASTIN was used. As a negative control, vehicle (4% ethanol, 96% PEG400) was used. Recombinant human basic fibroblast growth factor (bFGF) and vascular endothelial growth factor (VEGF) were obtained from R&D Systems. New Zealand white rabbits were used in this study.
On Day 1, the right eye of each animal received a subretinal injection of 10-20 μL of […] containing 10 μg/0.1 mL b-FGF and 2 μg/0.1 mL VEGF. […]-containing formulations are kept on ice until administered. Briefly, the conjunctiva was opened and a small slit in the sclera was made to expose the vitreous. A cannula connected to a tuberculin syringe was inserted into the subretinal space and the […]/growth factor combination was delivered. The scleral and conjunctival opening were closed with a 7-0 Vicryl suture. […]

[4] = cited from earlier work
[5] = in vivo; conditions: rabbit
Procedure: Both eyes (or one eye depending on the study) of each animal received one or two drops (40 μl per drop) of the studied formulations using a calibrated pipette on day 0 (day of dosing).
For Tables 3-6, the solution of Example 46 (formulation #340) was administered two drops twice a day on both eyes, one time for Group I, two drops once a day on one eye, one time for Group II, and two drops once a day on both eyes for 6 days in Group III. In Group II, the right eye (OD) but not the left eye (OS) received eye drops. In a further study, one drop of the formulation #340 (40 μL containing 880 μg rapamycin) was administered on day zero.
For FIGS. 5 and 6, the aqueous rapamycin-containing formulations #329 and #330 of Table 1 were administered two drops once or twice a day for up to 28 days. For FIGS. 7 and 8, the aqueous rapamycin-containing formulations #331 and #332 of Table 1 were administered two drops twice a day for 6 days.
For FIG. 10A-B one drop of an aqueous or a non-aqueous formulation containing about 0.2% rapamycin were administered to both eyes of rabbit subjects once a day for six days (day 0 to day 6). As used herein, the terms “aqueous” and “hydrophilic” refer to formulations in which the dominant component is an aqueous compound such as water (e.g., formulations #342 and #342 of Table 1), while the terms “non-aqueous” and “lipophilic” refer to formulation in which the dominant component is a non-aqueous compound such as PEG 400 (e.g., formulations #344 and #345 of Table 1). Rapamycin concentrations in the cornea, retina choroid and blood were measured at day 7 and day 14.
For FIG. 11 one drop of a non-aqueous formulation containing about 0.2% rapamycin (e.g., formulations #344 or #345) was administered to both eyes of rabbit subjects once a day on day 0, 7, 14 and 21. Rapamycin concentrations in the cornea, retina choroid and aqueous humor were measured on days 3, 10, 17, 24 and 28.

[6] = Pilot pharmacokinetic study, intravitreal injection of rapalog/mTOR inhibitor formulations; concentration in the vitreous (FIGS. 17, 19, 20); conditions: 330 mcg by intravitreal injection of 10 μl of 3% agent in 97% PEG400; FIG. 17
Procedure: In a pilot pharmacokinetic study, 330 mcg of the therapeutic agent was administered to rabbits by intravitreal injection of a 10 μl volume.
In a pilot pharmacokinetic study, 220 mcg of the therapeutic agent was administered to rabbits by intravitreal injection of a 10 μl volume.

With `CC(C)n1nc(-c2cccc(C(=O)NC3=NCCS3)c2)c2c(N)ncnc21` [PP30] the “Solubility, PEG 400” value [1] was >13 mg/g and <22 mg/g.
For `CO[C@H]1C[C@@H]2CC[C@@H](C)[C@@](O)(O2)C(=O)C(=O)N2CCCC[C@H]2C(=O)O[C@H]([C@H](C)C[C@@H]2CC[C@H](n3cnnn3)[C@H](OC)C2)CC(=O)[C@H](C)/C=C(\C)[C@@H](O)[C@@H](OC)C(=O)[C@H](C)C[C@H](C)/C=C/C=C/C=C/1C` [zotarolimus], the IC50 [2] is given as 1.78 nM, the “inhibition of neovascular disease (fluorescein angiography grading)” value [3] is given as “inhibited neovascular disease to a greater extent than a 50 microliter dose of AVASTIN” and the “Solubility, DMSO” value ([4]; literature values) is given as greater than 1 mg/mL. The “Solubility, Ethanol” value ([4]; literature values) was greater than 100 mg/mL, the “Solubility, Aqueous” value ([4]; pH 6.5, literature value) was 0.47 mcg/ml* pH 6.5 and the “Solubility, Aqueous” value ([4]; pH 7.4, literature value) was 0.53 mcg/ml* pH 7.4.
In the case of `CO[C@H]1C[C@@H]2CC[C@@H](C)[C@@](O)(O2)C(=O)C(=O)N2CCCC[C@H]2C(=O)O[C@H]([C@H](C)C[C@@H]2CC[C@@H](O)[C@H](OC)C2)CC(=O)[C@H](C)/C=C(\C)[C@@H](O)[C@@H](OC)C(=O)[C@H](C)C[C@H](C)/C=C/C=C/C=C/1C` [sirolimus, rapamycin], the “Rapamycin level, Blood” value ([5]; 1 day) is reported as 2.84 ng/mL, the “Rapamycin level, Blood” value ([5]; 3 day) is reported as 27.29 ng/mL and the concentration at 1 day ([5]; Rapamycin level, Blood) is reported as 4.63 ng/mL. The concentration at 3 day ([5]; Rapamycin level, Blood) was 37.1 ng/mL, the concentration at 8 day ([5]; Rapamycin level, Blood) was 15.5 ng/mL and the concentration at 10 day ([5]; Rapamycin level, Blood) was 7.67 ng/mL. It also gave a concentration at 12 day ([5]; Rapamycin level, Blood) of 2.88 ng/mL, a concentration at 14 day ([5]; Rapamycin level, Blood) of 48.3 ng/mL and a concentration at 8 day ([5]; Rapamycin level, Cornea) of 169 ng/g. The concentration at 10 day ([5]; Rapamycin level, Cornea) was 110 ng/g, the concentration at 12 day ([5]; Rapamycin level, Cornea) was 97.9 ng/g and the concentration at 14 day ([5]; Rapamycin level, Cornea) was 84.2 ng/g. For the same compound, the IC50 [2] was 29.5 nM, the “concentration remaining in the vitreous after a single injection” value [6] was “Sustained concentrations” and the “Solubility, DMSO” value [1] was greater than 472 mg/g. The “Solubility, PEG 400” value [1] was 3 mg/g, the “physical state when formulated in PEG400” value [1] was “suspension” and the “Solubility, Ethanol” value ([4]; literature value) was greater than 90 mg/g. The “Solubility, Aqueous” value ([4]; literature values) was 1 to 2.6 µg/mL.
With `COc1ccc(COc2cc3oc(=O)c4cc(C(C)O)ccc4c3cc2OC)cc1` (stereo not shown) [palomid 529, 8-(1-hydroxy-ethyl)-2-methoxy-3-(4-methoxy-benzyloxy)-benzo[c]chromen-6-one] the “potency as inhibitor of VEGF-induced proliferation relative to the other compounds tested” value [2] was “less potent inhibitors of VEGF-induced proliferation than the other compounds tested”.
In the case of `CO[C@H]1C[C@@H]2CC[C@@H](C)[C@@](O)(O2)C(=O)C(=O)N2CCCC[C@H]2C(=O)O[C@H]([C@H](C)C[C@@H]2CC[C@@H](OCCO)[C@H](OC)C2)CC(=O)[C@H](C)/C=C(\C)[C@@H](O)[C@@H](OC)C(=O)[C@H](C)C[C@H](C)/C=C/C=C/C=C/1C` [everolimus], the IC50 [2] is reported as 22.4 nM, the “Solubility, PEG 400” value [1] is reported as greater than 624 mg/g and the “physical state when formulated in PEG400” value [1] is reported as “went into solution”. The “Solubility, Aqueous” value ([4]; literature values) was 1 to 10.0 µg/mL, the “Solubility, DMSO” value ([4]; literature values) was greater than 100 mg/mL and the “Solubility, Ethanol” value ([4]; literature values) was greater than 100 mg/mL.
For `C=CC[C@@H]1/C=C(\C)C[C@H](C)C[C@H](OC)[C@H]2O[C@@](O)(C(=O)C(=O)N3CCCC[C@H]3C(=O)O[C@H](/C(C)=C/[C@@H]3CC[C@@H](O)[C@H](OC)C3)[C@H](C)[C@@H](O)CC1=O)[C@H](C)C[C@@H]2OC` [tacrolimus], the “potency as inhibitor of VEGF-induced proliferation relative to the other compounds tested” value [2] was “less potent inhibitors of VEGF-induced proliferation than the other compounds tested” and the IC50 [2] was 324000 nM.
In the case of `CO[C@H]1C[C@@H]2CC[C@@H](C)[C@@](O)(O2)C(=O)C(=O)N2CCCC[C@H]2C(=O)O[C@H]([C@H](C)C[C@@H]2CC[C@@H](OC(=O)C(C)(CO)CO)[C@H](OC)C2)CC(=O)[C@H](C)/C=C(\C)[C@@H](O)[C@@H](OC)C(=O)[C@H](C)C[C@H](C)/C=C/C=C/C=C/1C` [temsirolimus], the IC50 [2] is listed as 15.9 nM, the “Solubility, Aqueous” value ([4]; literature values) is listed as 10 to 20 µg/mL and the “Solubility, DMSO” value ([4]; literature values) is listed as greater than 200 mg/mL. The “Solubility, Ethanol” value ([4]; literature values) was greater than 200 mg/mL.
With `CC(C)n1nc(-c2cc3cc(O)ccc3[nH]2)c2c(N)ncnc21` [PP242, 2-(4-Amino-1-isopropyl-1H-pyrazolo[3,4-d]pyrimidin-3-yl)-1H-indol-5-ol] the “Solubility, PEG 400” value [1] was greater than 126 mg/g.
